Measured values reported in patent US10696615B2, “Prenylated hydroxystilbenes” (The University of Sydney, priority 2011, dated 2020).

Assays:
Format in all cases: cell-based, human
[1] = tested on: HCT-15; assay: NCI in vitro cancer screen, Colon Cancer; details: HCT-15; for GI50 / CC50: Homo sapiens; for CC50: read-out: LC50 (the source's name)
[2] = tested on: NCI-H322M; assay: NCI in vitro cancer screen, Non-Small Cell Lung Cancer; details: for GI50 / LC50 (50% lethal concentration): Homo sapiens
[3] = tested on: RPMI-8226; assay: NCI in vitro cancer screen, Leukemia; details: RPMI-8226; for GI50 / CC50: Homo sapiens; for CC50: read-out: LC50 (the source's name)
[4] = tested on: A549/ATCC; assay: NCI in vitro cancer screen, Non-Small Cell Lung Cancer; details: for GI50 / CC50: Homo sapiens; for CC50: read-out: LC50 (the source's name)
[5] = tested on: SK-OV-3; assay: NCI in vitro cancer screen, Ovarian Cancer; details: SK-OV-3; for GI50 / CC50: Homo sapiens; for CC50: read-out: LC50 (the source's name)
[6] = tested on: ADR-RES (NCI/ADR-RES); assay: NCI in vitro cancer screen, Ovarian Cancer; details: for TGI: ADR-RES; for GI50 / CC50: Homo sapiens, NCI/ADR-RES; for CC50: read-out: LC50 (the source's name)
[7] = tested on: K-562; assay: NCI in vitro cancer screen, Leukemia; details: K-562; for GI50 / CC50: Homo sapiens, K562; for CC50: read-out: LC50 (the source's name)
[8] = tested on: M14; assay: NCI in vitro cancer screen, Melanoma; details: M14; for GI50 / CC50: Homo sapiens; for CC50: read-out: LC50 (the source's name)
[9] = tested on: OVCAR-4; assay: NCI in vitro cancer screen, Ovarian Cancer; details: OVCAR-4; for GI50 / CC50: Homo sapiens; for CC50: read-out: LC50 (the source's name)
[10] = tested on: UACC-62; assay: NCI in vitro cancer screen, Melanoma; details: UACC-62; for GI50 / CC50: Homo sapiens; for CC50: read-out: LC50 (the source's name)
[11] = tested on: HCC-2998; assay: NCI in vitro cancer screen, Colon Cancer; details: HCC-2998; for GI50 / CC50: Homo sapiens; for CC50: read-out: LC50 (the source's name)
[12] = tested on: HOP-62; assay: NCI in vitro cancer screen, Non-Small Cell Lung Cancer; details: HOP-62; for GI50 / CC50: Homo sapiens; for CC50: read-out: LC50 (the source's name)
[13] = tested on: CCRF-CEM; assay: NCI in vitro cancer screen, Leukemia; details: for GI50 / CC50: Homo sapiens; for CC50: read-out: LC50 (the source's name)
[14] = tested on: SK-MEL-5; assay: NCI in vitro cancer screen, Melanoma; details: SK-MEL-5; for GI50 / CC50: Homo sapiens; for CC50: read-out: LC50 (the source's name)
[15] = tested on: OVCAR-3; assay: NCI in vitro cancer screen, Ovarian Cancer; details: OVCAR-3; for GI50 / CC50: Homo sapiens; for CC50: read-out: LC50 (the source's name)
[16] = tested on: T-47D; assay: NCI in vitro cancer screen, Breast Cancer; details: for GI50 / CC50: Homo sapiens, T47D; for CC50: read-out: LC50 (the source's name)
[17] = tested on: EKVX; assay: NCI in vitro cancer screen, Non-Small Cell Lung Cancer; details: for GI50 / CC50: Homo sapiens; for CC50: read-out: LC50 (the source's name)
[18] = tested on: SNB-75; assay: NCI in vitro cancer screen, CNS Cancer; details: SNB-75; for GI50 / CC50: Homo sapiens; for CC50: read-out: LC50 (the source's name)
[19] = tested on: HL-60 (TB); assay: NCI in vitro cancer screen, Leukemia; details: HL-60 (TB); for GI50 / CC50: Homo sapiens; for CC50: read-out: LC50 (the source's name)
[20] = tested on: 786-0; assay: NCI in vitro cancer screen, Renal Cancer; details: 786-0; for GI50 / LC50 (50% net cell kill): Homo sapiens
[21] = tested on: SK-MEL-2; assay: NCI in vitro cancer screen, Melanoma; details: SK-MEL-2; for GI50 / LC50: Homo sapiens
[22] = tested on: OVCAR-5; assay: NCI in vitro cancer screen, Ovarian Cancer; details: OVCAR-5; for GI50 / CC50: Homo sapiens; for CC50: read-out: LC50 (the source's name)
[23] = tested on: HCT-116; assay: NCI in vitro cancer screen, Colon Cancer; details: HCT-116; for GI50 / LC50 (concentration killing 50% of cells): Homo sapiens
[24] = tested on: RXF-393; assay: NCI in vitro cancer screen, Renal Cancer; details: RXF-393; for GI50 / CC50: Homo sapiens; for CC50: read-out: LC50 (the source's name)
[25] = tested on: HS 578T; assay: NCI in vitro cancer screen, Breast Cancer; details: for GI50 / CC50: Homo sapiens; for CC50: read-out: LC50 (the source's name)
[26] = tested on: OVCAR-8; assay: NCI in vitro cancer screen, Ovarian Cancer; details: OVCAR-8; for GI50 / CC50: Homo sapiens; for CC50: read-out: LC50 (the source's name)
[27] = tested on: COLO 205; assay: NCI in vitro cancer screen, Colon Cancer; details: COLO 205; for GI50 / CC50: Homo sapiens; for CC50: read-out: LC50 (the source's name)
[28] = tested on: HT29; assay: NCI in vitro cancer screen, Colon Cancer; details: HT29; for GI50 / CC50: Homo sapiens, HT-29; for CC50: read-out: LC50 (the source's name)
[29] = tested on: DU-145; assay: NCI in vitro cancer screen, Prostate Cancer; details: DU-145; for GI50 / CC50: Homo sapiens; for CC50: read-out: LC50 (the source's name)
[30] = tested on: SF-268; assay: NCI in vitro cancer screen, CNS Cancer; details: SF-268; for GI50 / CC50: Homo sapiens; for CC50: read-out: LC50 (the source's name)
[31] = tested on: ACHN; assay: NCI in vitro cancer screen, Renal Cancer; details: for GI50 / CC50: Homo sapiens; for CC50: read-out: LC50 (the source's name)

CC(C)=CCc1c(O)cc(/C=C/c2ccc(O)c(O)c2)c(CC=C(C)C)c1O [USYDS7, (E)-2,4-di(3-methyl-2-buten-1-yl)-3,3′,4′,5-tetrahydroxystilbene]
TGI [1]: 3.78 µM
GI50 [1]: 1.29 µM
CC50 [1]: 22 µM
TGI [2]: 18.1 µM
GI50 [2]: 5.29 µM
LC50 (50% lethal concentration) [2]: 44.7 µM
GI50 [3]: 2.31 µM
CC50 [3]: 61.1 µM
TGI [3]: 6.01 µM
TGI [4]: 4.06 µM
GI50 [4]: 1.88 µM
CC50 [4]: 8.78 µM
GI50 [5]: 5.98 µM
CC50 [5]: 46.5 µM
TGI [5]: 19.4 µM
TGI [6]: 7.90 µM
GI50 [6]: 2.23 µM
CC50 [6]: 42.4 µM
GI50 [7]: 2.14 µM
CC50 [7]: 17.4 µM
TGI [7]: 4.78 µM
GI50 [8]: 1.79 µM
CC50 [8]: 7.73 µM
TGI [8]: 3.71 µM
GI50 [9]: 2.85 µM
CC50 [9]: 66.8 µM
TGI [9]: 11.1 µM
GI50 [10]: 2.8 µM
CC50 [10]: 31.5 µM
TGI [10]: 7.84 µM
TGI [11]: 4.26 µM
GI50 [11]: 1.95 µM
CC50 [11]: 9.34 µM
TGI [12]: 15.0 µM
GI50 [12]: 3.67 µM
CC50 [12]: 51.6 µM
TGI [13]: 8.48 µM
GI50 [13]: 2.73 µM
CC50 [13]: 71.2 µM
GI50 [14]: 1.8 µM
CC50 [14]: 7.54 µM
TGI [14]: 3.68 µM
GI50 [15]: 1.82 µM
CC50 [15]: 6.19 µM
TGI [15]: 3.36 µM
TGI [16]: 6.09 µM
GI50 [16]: 1.88 µM
CC50 [16]: 43.5 µM
TGI [17]: 14.7 µM
GI50 [17]: 4.25 µM
CC50 [17]: 44.9 µM
GI50 [18]: 2.98 µM
CC50 [18]: 49.1 µM
TGI [18]: 12.8 µM
TGI [19]: 5.06 µM
GI50 [19]: 2.39 µM
CC50 [19]: 13.8 µM
TGI [20]: 4.47 µM
GI50 [20]: 1.99 µM
LC50 (50% net cell kill) [20]: 10.2 µM
GI50 [21]: 3.2 µM
LC50 [21]: 42.9 µM
TGI [21]: 7.82 µM
GI50 [22]: 3.04 µM
CC50 [22]: 39 µM
TGI [22]: 11.6 µM
TGI [23]: 3.02 µM
GI50 [23]: 1.57 µM
LC50 (concentration killing 50% of cells) [23]: 5.82 µM
GI50 [24]: 1.53 µM
CC50 [24]: 6.8 µM
TGI [24]: 3.23 µM
TGI [25]: 8.09 µM
GI50 [25]: 1.84 µM
CC50 [25]: 50.9 µM
GI50 [26]: 1.68 µM
CC50 [26]: 7.95 µM
TGI [26]: 3.65 µM
TGI [27]: 4.34 µM
GI50 [27]: 1.79 µM
CC50 [27]: 12.2 µM
TGI [28]: 10.8 µM
GI50 [28]: 3.64 µM
CC50 [28]: 45.8 µM
TGI [29]: 7.62 µM
GI50 [29]: 2.65 µM
CC50 [29]: 28.3 µM
GI50 [30]: 2.26 µM
CC50 [30]: 22.7 µM
TGI [30]: 5.47 µM
TGI [31]: 9.12 µM
GI50 [31]: 2.58 µM
CC50 [31]: 37.6 µM

COc1cc(/C=C/c2cc(O)cc(OCC=C(C)C)c2)ccc1O [USYDS2, (E)-3-(3-methyl-2-butenyloxy)-4′,5-dihydroxy-3′-methoxystilbene]
TGI [1]: 17.8 µM
GI50 [1]: 0.76 µM
CC50 [1]: 97.3 µM
TGI [2]: 22.7 µM
GI50 [2]: 9.64 µM
LC50 (50% lethal concentration) [2]: 52.3 µM
GI50 [3]: 4.32 µM
CC50 [3]: > 100 µM
TGI [3]: 52.8 µM
TGI [4]: 13.0 µM
GI50 [4]: 3.28 µM
CC50 [4]: 42.1 µM
GI50 [5]: 3.69 µM
CC50 [5]: 38.9 µM
TGI [5]: 14.9 µM
TGI [6]: 4.95 µM
GI50 [6]: 0.4 µM
CC50 [6]: > 100 µM
GI50 [7]: 0.48 µM
CC50 [7]: > 100 µM
TGI [7]: >100 µM
GI50 [8]: 0.53 µM
CC50 [8]: 49.4 µM
TGI [8]: 15.4 µM
GI50 [9]: 5.34 µM
CC50 [9]: > 100 µM
TGI [9]: 28.0 µM
GI50 [10]: 3.73 µM
CC50 [10]: 44.6 µM
TGI [10]: 15.9 µM
TGI [11]: 17.3 µM
GI50 [11]: 4.61 µM
CC50 [11]: 46.4 µM
TGI [12]: 18.5 µM
GI50 [12]: 4.44 µM
CC50 [12]: 43.4 µM
TGI [13]: >100 µM
GI50 [13]: 5.06 µM
CC50 [13]: > 100 µM
GI50 [14]: 1.58 µM
CC50 [14]: 34.3 µM
TGI [14]: 11.5 µM
GI50 [15]: 3.02 µM
CC50 [15]: 36.1 µM
TGI [15]: 10.7 µM
TGI [16]: 33.6 µM
GI50 [16]: 5.66 µM
CC50 [16]: > 100 µM
TGI [17]: 25.2 µM
GI50 [17]: 9.04 µM
CC50 [17]: 66.4 µM
GI50 [18]: 2.14 µM
CC50 [18]: 55.8 µM
TGI [18]: 10.3 µM
TGI [19]: 9.77 µM
GI50 [19]: 1.34 µM
CC50 [19]: > 100 µM
TGI [20]: 15.9 µM
GI50 [20]: 3.55 µM
LC50 (50% net cell kill) [20]: 98.8 µM
GI50 [21]: 1.25 µM
LC50 [21]: 41.6 µM
TGI [21]: 9.59 µM
GI50 [22]: 10.1 µM
CC50 [22]: 60.9 µM
TGI [22]: 24.8 µM
TGI [23]: 11.9 µM
GI50 [23]: 2.09 µM
LC50 (concentration killing 50% of cells) [23]: 40 µM
GI50 [24]: 1.35 µM
CC50 [24]: 23.6 µM
TGI [24]: 5.46 µM
TGI [25]: 10.3 µM
GI50 [25]: 1.28 µM
CC50 [25]: > 100 µM
GI50 [26]: 2.8 µM
CC50 [26]: 44.6 µM
TGI [26]: 14.8 µM
TGI [27]: 31.7 µM
GI50 [27]: 17.3 µM
CC50 [27]: 57.9 µM
TGI [28]: 32.2 µM
GI50 [28]: 17.4 µM
CC50 [28]: 59.6 µM
TGI [29]: 12.5 µM
GI50 [29]: 3.05 µM
CC50 [29]: 37.8 µM
GI50 [30]: 4.5 µM
CC50 [30]: 51.6 µM
TGI [30]: 19.2 µM
TGI [31]: 17.5 µM
GI50 [31]: 3.76 µM
CC50 [31]: 52.1 µM
